We go through 3 molecules from BindingDB's records for doi:10.1021/acs.jnatprod.0c00251 (University of Halle-Wittenberg, 2020).

Series [1] is described as follows: Substrate activity at OATP1B3 (unknown origin) expressed in HEK293 cells assessed as cytotoxicity incubated for 48 hrs by sulforhodamine B assay. A general note: In SRB staining, fixed cells bind dye roughly in proportion to their protein.
Series [2] can be described thus: Substrate activity at OATP1B1 (unknown origin) expressed in HEK293 cells assessed as cytotoxicity incubated for 48 hrs by sulforhodamine B assay.

The structures appear in SMILES notation. Numbered stars: 1 amine (or outer) side, 2 acyl side, 3 side chain; on linkers, the order of the positions; unused ones are H or OH. Bridge positions count the residues as written; N and C are the ends. Square brackets hold non-standard residues; d marks the D form. Peptide text beside a SMILES is read from it. * marks the point of attachment. Adda = CO[C@@H](Cc1ccccc1)[C@@H](C)/C=C(C)/C=C/[C@H](N[*:1])[C@H](C)C(=O)[*:2]; dAsp(3S-Me) = C[C@H](C(=O)[*:3])[C@@H](N[*:1])C(=O)[*:2]; d(γGlu) = O=C(O)[C@@H](CCC(=O)[*:2])N[*:1]; NMeDha = C=C(NC)C(=O)O; Propargyl = C#CC*

One may read the EC50 as the concentration needed to bring the measured effect to its halfway point. On to `C=C1C(=O)N[C@H](C)C(=O)N[C@@H](Cc2ccc(OCc3cn(-c4cc5ccc(O)cc5oc4=O)nn3)cc2)C(=O)N[C@@H](C(=O)O)[C@H](C)C(=O)N[C@@H](CCCNC(=N)N)C(=O)N[C@@H](/C=C/C(C)=C/[C@H](C)[C@H](Cc2ccccc2)OC)[C@H](C)C(=O)N[C@@H](C(=O)O)CCC(=O)N1C`, for which the figures for the EC50 in series [1] and in series [2] were 1.4 nM and 1.7 nM, respectively.

Turning to `C#CCOc1ccc(C[C@@H]2NC(=O)[C@@H](C)NC(=O)C(=C)N(C)C(=O)CC[C@H](C(=O)O)NC(=O)[C@@H](C)[C@H](/C=C/C(C)=C/[C@H](C)[C@H](Cc3ccccc3)OC)NC(=O)[C@H](CCCNC(=N)N)NC(=O)[C@@H](C)[C@H](C(=O)O)NC2=O)cc1` (R[Adda][d(γGlu)][NMeDha][dA]Y(Propargyl)[dAsp(3S-Me)]-OH; lactam N-7), the EC50 in series [1] came out at 2.4 nM; in series [2], 1.1 nM.

On to `C=C1C(=O)N[C@H](C)C(=O)N[C@@H](Cc2ccc(O)cc2)C(=O)N[C@@H](C(=O)O)[C@H](C)C(=O)N[C@@H](CCCNC(=N)N)C(=O)N[C@@H](/C=C/C(C)=C/[C@H](C)[C@H](Cc2ccccc2)OC)[C@H](C)C(=O)N[C@@H](C(=O)O)CCC(=O)N1C` (R[Adda][d(γGlu)][NMeDha][dA]Y[dAsp(3S-Me)]-OH; lactam N-7), for which the EC50 in series [1] amounted to 3 nM; in series [2], 4.5 nM.
